This passage reports inhibition and IC50 results from patent US10144742B2 (Millennium Pharmaceuticals, Inc., priority 2014, dated 2018).

The test system of assay [1] is PC3 cells. The assay can be described thus: PC3 growth inhibition (Cell-titer glo, 72 hours). It counts as cell-based. The note with it: Homo sapiens, PC-3; compound concentration 1.667 μM; PC3 cells, 72 hours, Cell-titer glo; read-out: Percent Inhibition (PC3 growth inhibition). The method, boiled down: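 Compounds in AIM serum-free medium were applied for 72 h at 37 °C, 5% CO2 to PC3 cells plated overnight from RPMI1640 culture. Luminescence after 10 min CellTiter-Glo, normalised to DMSO, gave % viability at 1 μM or 1.667 μM, or GI50/LD50.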

Assay [2] has as its target hNAMPT protein (Homo sapiens (Human), UniProt P43490). The assay is described as follows: NAMPT enzyme assay (TR-FRET/HTRF, BodiPY ligand, anti 6His-Tb). It counts as binding. The note with it: for inhibition at 1 µM: NAMPT inhibition at compound concentration 1 μM, read-out: Percent Inhibition; for IC50: NAMPT inhibition, IC50 range class, read-out: IC50. The method, boiled down: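 Compound or DMSO was incubated for 1 h at room temperature, protected from light, with BodiPY ligand and hNAMPT labelled by terbium anti-6His antibody. The 520 nm to 486 nm emission ratio after 320 nm excitation gave inhibition versus vehicle, from which concentration-response curves yielded IC50.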
A general note: Time-resolved FRET reads energy transfer from a long-lived donor to a nearby acceptor.

Molecules are shown by their SMILES.

hNAMPT protein, sequence (P43490 whole entry): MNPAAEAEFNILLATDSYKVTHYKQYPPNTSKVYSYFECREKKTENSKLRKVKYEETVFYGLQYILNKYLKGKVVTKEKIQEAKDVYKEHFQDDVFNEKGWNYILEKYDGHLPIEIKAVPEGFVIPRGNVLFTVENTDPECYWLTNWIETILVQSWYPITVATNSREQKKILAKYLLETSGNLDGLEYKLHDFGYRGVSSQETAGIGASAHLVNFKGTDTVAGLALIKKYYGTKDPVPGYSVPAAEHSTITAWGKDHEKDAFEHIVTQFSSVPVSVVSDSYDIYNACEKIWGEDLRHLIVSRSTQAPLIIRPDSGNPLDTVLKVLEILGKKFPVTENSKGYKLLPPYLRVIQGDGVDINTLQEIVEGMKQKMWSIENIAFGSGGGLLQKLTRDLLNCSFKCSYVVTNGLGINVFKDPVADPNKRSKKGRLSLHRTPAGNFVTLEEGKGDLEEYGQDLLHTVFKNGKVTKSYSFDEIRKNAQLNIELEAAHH

The inhibition is the drop in the measured response relative to a control, in per cent. The IC50 is the point on the concentration scale where inhibition reaches its midpoint. In the case of `CN(C)C1CCC(Oc2nc3ccc(C(=O)NCCCc4ncc[nH]4)cc3nc2-c2ccc(F)cc2)CC1` (stereo not drawn) [Compound I-456, 2-{[4-(dimethylamino)cyclohexyl]oxy}-3-(4-fluorophenyl)-N-[3-(1H-imidazol-2-yl)propyl]quinoxaline-6-carboxamide], the inhibition at 1.667 µM in assay [1] came out at 2%. In addition, in assay [2], the inhibition at 1 µM was above 99% and the IC50 was below 0.1 µM.
The matching figures for `COC1CCN(c2nc3ccc(C(=O)NCCCc4ncc[nH]4)cc3nc2-c2ccc(F)cc2)C1` (stereo not drawn) [Compound I-457, 3-(4-fluorophenyl)-N-[3-(1H-imidazol-2-yl)propyl]-2-(3-methoxypyrrolidin-1-yl)quinoxaline-6-carboxamide]: 2%, 98% and below 0.1 µM.
Take `N#Cc1cccc(-c2nc3cc(C(=O)NCCCc4ncc[nH]4)ccc3nc2-c2ccc(F)cc2)c1` [Compound I-458, 3-(3-cyanophenyl)-2-(4-fluorophenyl)-N-[3-(1H-imidazol-2-yl)propyl]quinoxaline-6-carboxamide]: the inhibition at 1.667 µM in assay [1] amounted to 2%. In addition, in assay [2], the inhibition at 1 µM was determined as 81% and the concentration for half-maximal inhibition (IC50) was 0.1 to 0.5 µM.
The matching figures for `O=C(NCCCc1ncc[nH]1)c1ccc2nc(OCc3ncc[nH]3)c(-c3ccc(F)cc3)nc2c1` [Compound I-459, 3-(4-fluorophenyl)-2-(1H-imidazol-2-ylmethoxy)-N-[3-(1H-imidazol-2-yl)propyl]quinoxaline-6-carboxamide]: above 99%, 47% and 0.5 to 1 µM.
The matching figures for `Cn1ccc(COc2nc3ccc(C(=O)NCCCc4ncc[nH]4)cc3nc2-c2ccc(F)cc2)n1` [Compound I-460, 3-(4-fluorophenyl)-N-[3-(1H-imidazol-2-yl)propyl]-2-[(1-methyl-1H-pyrazol-3-yl)methoxy]quinoxaline-6-carboxamide]: 2%, 99% and below 0.1 µM.
The matching figures for `O=C(NCCCc1ncc[nH]1)c1ccc2nc(-c3ccc(F)cc3)c(-c3ccc4c(c3)OCO4)nc2c1` [Compound I-461, 3-(1,3-benzodioxol-5-yl)-2-(4-fluorophenyl)-N-[3-(1H-imidazol-2-yl)propyl]quinoxaline-6-carboxamide]: 2%, 86% and 0.1 to 0.5 µM.
Consider `C#CCOc1nc2ccc(C(=O)NCCCc3ncc[nH]3)cc2nc1-c1ccc(F)cc1` [Compound I-462, 3-(4-fluorophenyl)-N-[3-(1H-imidazol-2-yl)propyl]-2-(prop-2-yn-1-yloxy)quinoxaline-6-carboxamide], for which the inhibition at 1.667 µM in assay [1] worked out at 2%. For the same molecule, in assay [2], the inhibition at 1 µM is 95% and the 50% inhibitory concentration (IC50) is below 0.1 µM.
The matching figures for `O=C(NCCCc1ncc[nH]1)c1ccc2nc(-c3ccc(F)cc3)c(-c3cccc(Cl)c3)nc2c1` [Compound I-463, 3-(3-chlorophenyl)-2-(4-fluorophenyl)-N-[3-(1H-imidazol-2-yl)propyl]quinoxaline-6-carboxamide]: 3%, 97% and below 0.1 µM.
The matching figures for `O=C(NCc1nc2cnccc2[nH]1)c1ccc2nc(-c3ccc(F)cc3)c(-c3ccc(F)cc3)nc2c1` [Compound I-464, 2,3-bis(4-fluorophenyl)-N-(1H-imidazo[4,5-c]pyridin-2-ylmethyl)quinoxaline-6-carboxamide]: 0%, above 99% and below 0.1 µM.
The matching figures for `O=C(NCCCc1ncc[nH]1)c1ccc2nc(N3CCCC3)c(-c3ccc(F)cc3)nc2c1` [Compound I-465, 3-(4-fluorophenyl)-N-[3-(1H-imidazol-2-yl)propyl]-2-(pyrrolidin-1-yl)quinoxaline-6-carboxamide]: 2%, 98% and below 0.1 µM.
`COc1cc(-c2nc3cc(C(=O)NCCCc4ncc[nH]4)ccc3nc2-c2ccc(F)cc2)c(F)cn1` [Compound I-466, 3-(5-fluoro-2-methoxy-4-pyridyl)-2-(4-fluorophenyl)-N-[3-(1H-imidazol-2-yl)propyl]quinoxaline-6-carboxamide]: the inhibition at 1.667 µM in assay [1] came to 2%. Moreover, in assay [2], the inhibition at 1 µM was 95% and the IC50 is below 0.1 µM.
The matching figures for `COc1ccc(C)c(-c2nc3cc(C(=O)NCCCc4ncc[nH]4)ccc3nc2-c2ccc(F)cc2)c1` [Compound I-467, 2-(4-fluorophenyl)-N-[3-(1H-imidazol-2-yl)propyl]-3-(5-methoxy-2-methylphenyl)quinoxaline-6-carboxamide]: 2%, 94% and below 0.1 µM.
For `O=C(NCCCc1ncc[nH]1)c1ccc2nc(O[C@H]3CCOC3)c(-c3ccc(F)cc3)nc2c1` [Compound I-468, 3-(4-fluorophenyl)-N-[3-(1H-imidazol-2-yl)propyl]-2-[(3S)-tetrahydrofuran-3-yloxy]quinoxaline-6-carboxamide], in assay [1], the inhibition at 1.667 µM came out at 2%. Further, in assay [2], the inhibition at 1 µM came to 99% and the IC50 was below 0.1 µM.
Take `O=C(NCCCc1ncc[nH]1)c1ccc2nc(OCc3nccs3)c(-c3ccc(F)cc3)nc2c1` [Compound I-469, 3-(4-fluorophenyl)-N-[3-(1H-imidazol-2-yl)propyl]-2-(1,3-thiazol-2-ylmethoxy)quinoxaline-6-carboxamide]: the inhibition at 1.667 µM in assay [1] was 2%. Also, in assay [2], the inhibition at 1 µM stood at 98% and the IC50 was below 0.1 µM.
Take `COc1ccc(-c2nc3cc(C(=O)NCCCc4ncc[nH]4)ccc3nc2-c2ccc(F)cc2)cc1F` [Compound I-470, 3-(3-fluoro-4-methoxyphenyl)-2-(4-fluorophenyl)-N-[3-(1H-imidazol-2-yl)propyl]quinoxaline-6-carboxamide]: the inhibition at 1.667 µM in assay [1] was 2%. In addition, in assay [2], the inhibition at 1 µM amounted to 81% and the concentration for half-maximal inhibition (IC50) is 0.1 to 0.5 µM.
The matching figures for `Cc1cc(-c2nc3cc(C(=O)NCCCc4ncc[nH]4)ccc3nc2-c2ccc(F)cc2)ccc1F` [Compound I-471, 3-(4-fluoro-3-methylphenyl)-2-(4-fluorophenyl)-N-[3-(1H-imidazol-2-yl)propyl]quinoxaline-6-carboxamide]: 2%, above 99% and below 0.1 µM.
The matching figures for `Cc1ccc(C#N)cc1-c1nc2cc(C(=O)NCCCc3ncc[nH]3)ccc2nc1-c1ccc(F)cc1` [Compound I-472, 3-(5-cyano-2-methylphenyl)-2-(4-fluorophenyl)-N-[3-(1H-imidazol-2-yl)propyl]quinoxaline-6-carboxamide]: 2%, 98% and below 0.1 µM.
The matching figures for `Cc1ccc(-c2nc3cc(C(=O)NCCCc4ncc[nH]4)ccc3nc2-c2ccc(F)cc2)s1` [Compound I-473, 2-(4-fluorophenyl)-N-[3-(1H-imidazol-2-yl)propyl]-3-(5-methyl-2-thienyl)quinoxaline-6-carboxamide]: 3%, 85% and 0.1 to 0.5 µM.
As to `O=C(NCCCc1ncc[nH]1)c1ccc2nc(-c3ccc(F)cc3)c(-c3ccc(F)c(F)c3)nc2c1` [Compound I-474, 3-(3,4-difluorophenyl)-2-(4-fluorophenyl)-N-[3-(1H-imidazol-2-yl)propyl]quinoxaline-6-carboxamide], in assay [1], the inhibition at 1.667 µM was 3%. In assay [2], the inhibition at 1 µM amounted to 95% and the IC50 lay in the range of 0.1 to 0.5 µM.
The matching figures for `Cc1nn(C)cc1-c1nc2cc(C(=O)NCCCc3ncc[nH]3)ccc2nc1-c1ccc(F)cc1` [Compound I-475, 3-(1,3-dimethyl-1H-pyrazol-4-yl)-2-(4-fluorophenyl)-N-[3-(1H-imidazol-2-yl)propyl]quinoxaline-6-carboxamide]: 3%, 77% and 0.1 to 0.5 µM.
The matching figures for `O=C(NCCCc1ncc[nH]1)c1ccc2nc(Cc3ccc(Cl)cc3)c(-c3ccc(F)cc3)nc2c1` [Compound I-476]: 3%, 88% and 0.1 to 0.5 µM.
The matching figures for `O=C(NCCCc1ncc[nH]1)c1ccc2nc(-c3ccccc3)c(-c3cccs3)nc2c1` [Compound I-477, N-[3-(1H-imidazol-2-yl)propyl]-2-phenyl-3-(2-thienyl)quinoxaline-6-carboxamide]: 2%, above 99% and below 0.1 µM.
Turning to `CC(C)COc1nc2ccc(C(=O)NCCCc3ncc[nH]3)cc2nc1-c1ccc(F)cc1` [Compound I-478, 3-(4-fluorophenyl)-N-[3-(1H-imidazol-2-yl)propyl]-2-isobutoxyquinoxaline-6-carboxamide], the inhibition at 1.667 µM in assay [1] was 2%. Besides, in assay [2], the inhibition at 1 µM was determined as 96% and the half-inhibitory concentration (IC50) was below 0.1 µM.
The matching figures for `Nc1ccc(-c2nc3cc(C(=O)NCCCc4ncc[nH]4)ccc3nc2-c2ccc(F)cc2)cc1` [Compound I-479, 3-(4-aminophenyl)-2-(4-fluorophenyl)-N-[3-(1H-imidazol-2-yl)propyl]quinoxaline-6-carboxamide]: 3%, 75% and 0.1 to 0.5 µM.
